This note sets out measurements from patent US11225465B2, “Albicidin derivatives, their use and synthesis” (TECHNISCHE UNIVERSITÄT BERLIN, priority 2017, dated 2022).

Holding throughout (test): MHK against further strains (Table 2)
Common to all, as to type: cell-based

Test [1] relates to Klebsiella pneumoniae PEG-10-20-4. The note with it: Nr. 4 Klebsiella pneumoniae PEG-10-20-4, clinical isolate. The procedure: (§1) The tests were performed using the micro dilution method.
(§2) The determination of MIC values was performed according to the ninth edition of the Approved Standard M07-A9 (CLSI. Methods for Dilution Antimicrobial Susceptibility Tests for Bacteria That Grow Aerobically; Approved Standard—Ninth Edition. CLSI document M07-A9. Wayne, Pa.: Clinical and Laboratory Standards Institute; 2012.)

The test system of test [2] is Klebsiella oxytoca PEG-10-75-18. The settings on record: Nr. 15 Klebsiella oxytoca PEG-10-75-18, clinical isolate. Here is the method: as §1, §2
Test [3] has as its system Escherichia coli PEG 10-79-22. The settings on record: Nr. 11 Escherichia coli PEG 10-79-22, clinical isolate. The procedure: as §1, §2
Test [4] has as its system Enterococcus faecium PEG 13-73-65. The settings on record: Nr. 30 Enterococcus faecium PEG 13-73-65, clinical isolate. Here is the method: as §1, §2
Test [5] relates to Acinetobacter baumannii PEG 10-86-5. The note with it: Nr. 25 Acinetobacter baumannii PEG 10-86-5, clinical isolate; KBE/ml 2.00E+05. The procedure:
as §1, §2

In test [6] the test system is Pseudomonas aeruginosa PEG-10-2-61. The note with it: Nr. 7 Pseudomonas aeruginosa PEG-10-2-61, clinical isolate. Here is the method: as §1, §2
In test [7] the test system is Staphylococcus aureus ATCC 29213. The note with it: Nr. 8 Staphylococcus aureus ATCC 29213; KBE/ml 6.60E+05. The procedure:
as §1, §2

In test [8] the test system is Enterococcus faecium PEG 13-17-59. The settings on record: Nr. 29 Enterococcus faecium PEG 13-17-59, clinical isolate. Here is the method: as §1, §2
The subject of test [9] is Enterococcus faecium PEG 13-9-13. The note with it: Nr. 28 Enterococcus faecium PEG 13-9-13, clinical isolate. The procedure:
as §1, §2

The test system of test [10] is Escherichia coli PEG 10-2-81. The note with it: Nr. 10 Escherichia coli PEG 10-2-81, clinical isolate. The procedure:
as §1, §2

The test system of test [11] is Acinetobacter baumannii PEG 10-57-31. The note with it: Nr. 23 Acinetobacter baumannii PEG 10-57-31, clinical isolate; KBE/ml 2.60E+05. Here is the method:
as §1, §2

With `COc1c(NC(=O)c2ccc(NC(=O)c3ccc(NC(=O)[C@@H](CN(C)C)NC(=O)c4ccc(NC(=O)/C(C)=C/c5ccc(O)cc5)cc4)cc3)c(OC)c2O)ccc(C(=O)O)c1O` [Compound 16, D-DMDAP-Albicidin], the MHK in test [1], in [2], in test [3], in test [4], in test [5] and in test [6] was 32 mg/L throughout. Further, the MHK in test [7], in test [8], in test [9], in [10] and in test [11] was 32 mg/L throughout.

Take `COc1c(NC(=O)c2ccc(NC(=O)c3ccc(NC(=O)C(Cc4c[nH]nn4)NC(=O)c4ccc(NC(=O)/C(C)=C/c5ccc(O)cc5)cc4)cc3)c(OC)c2O)ccc(C(=O)O)c1O` [Compound 3, L-Azahis-Albicidin]: the MHK in [1] is 32 mg/L; in test [2], 8 mg/L; in [3] it was 0.063 mg/L; in test [4], 8 mg/L; in test [5], 4 mg/L; in test [6], 8 mg/L. Also, the MHK in test [7] is 0.5 mg/L; in test [8], 8 mg/L; in test [9] it was 8 mg/L; in test [10] it was 0.063 mg/L; in test [11] it was 32 mg/L.

For the compound `COc1c(NC(=O)c2ccc(NC(=O)c3ccc(NC(=O)[C@H](CN(C)C)NC(=O)c4ccc(NC(=O)/C(C)=C/c5ccc(O)cc5)cc4)cc3)c(OC)c2O)ccc(C(=O)O)c1O` [Compound 2, L-DMDAP-Albicidin], the MHK in test [1], in test [2], in [3], in test [4], in test [5] and in test [6] was 32 mg/L each time. The MHK in [7], in [8], in test [9], in test [10] and in [11] was 32 mg/L each time.

With `COc1c(NC(=O)c2ccc(NC(=O)c3ccc(NC(=O)[C@H](Cc4c[nH]cn4)NC(=O)c4ccc(NC(=O)/C(C)=C/c5ccc(O)cc5)cc4)cc3)c(OC)c2O)ccc(C(=O)O)c1O` [Compound 1, L-His-albicidin], the MHK in test [1] is 32 mg/L; in test [2] it was 32 mg/L; in test [3], 0.25 mg/L; in [4], 32 mg/L; in [5] it was 4 mg/L; in [6], 32 mg/L. For the same compound, the MHK in [7] worked out at 8 mg/L; in test [8], 32 mg/L; in [9], 32 mg/L; in [10] it was 0.5 mg/L; in [11], 32 mg/L.
